Among the data in ChEMBL document CHEMBL1137721, “Modeling the activity of furin inhibitors using artificial neural network” (Eur J Med Chem, 2009) are Ki values, retold here.

The structures appear in SMILES notation.

The target in this experiment is Furin (Homo sapiens, UniProt P09958). The experiment is described as follows: Inhibition of human recombinant furin-dependent anthrax protective antigen processing.
Chain of Furin (P09958 whole entry): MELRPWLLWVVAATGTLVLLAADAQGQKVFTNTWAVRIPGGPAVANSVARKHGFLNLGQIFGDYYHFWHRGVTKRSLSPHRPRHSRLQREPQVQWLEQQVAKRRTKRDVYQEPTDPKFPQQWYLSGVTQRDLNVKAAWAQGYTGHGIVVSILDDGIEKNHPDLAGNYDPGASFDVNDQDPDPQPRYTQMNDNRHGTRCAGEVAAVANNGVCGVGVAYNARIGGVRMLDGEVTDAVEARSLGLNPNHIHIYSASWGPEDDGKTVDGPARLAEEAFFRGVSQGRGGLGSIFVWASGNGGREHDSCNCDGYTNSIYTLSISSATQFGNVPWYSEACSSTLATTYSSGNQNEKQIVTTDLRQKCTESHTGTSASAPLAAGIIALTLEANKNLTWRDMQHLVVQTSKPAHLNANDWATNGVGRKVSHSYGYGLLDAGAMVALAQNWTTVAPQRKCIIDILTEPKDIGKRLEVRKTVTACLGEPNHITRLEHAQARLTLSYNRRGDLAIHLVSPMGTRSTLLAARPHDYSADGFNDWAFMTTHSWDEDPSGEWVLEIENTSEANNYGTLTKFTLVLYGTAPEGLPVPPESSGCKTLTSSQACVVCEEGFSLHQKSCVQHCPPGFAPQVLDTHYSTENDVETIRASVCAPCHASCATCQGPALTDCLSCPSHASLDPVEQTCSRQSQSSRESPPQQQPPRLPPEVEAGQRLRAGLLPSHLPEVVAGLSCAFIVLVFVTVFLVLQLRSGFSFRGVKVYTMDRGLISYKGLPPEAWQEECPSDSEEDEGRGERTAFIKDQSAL

For the compound `NC(N)=Nc1ccc(O[C@H]2C[C@@H](Oc3ccc(N=C(N)N)c4ccccc34)[C@H](N=C(N)N)C[C@@H]2N=C(N)N)c2ccccc12`, the inhibition constant (Ki) was found to be 0.069 µM.

For `N=C(N)Nc1ccc(O[C@H]2C[C@@H](Oc3ccc(NC(=N)N)cn3)[C@H](NC(=N)N)C[C@@H]2NC(=N)N)nc1`, the Ki was 0.042 µM.

Take `N=C(N)Nc1ccccc1NC(=O)O[C@H]1C[C@@H](OC(=O)Nc2ccccc2NC(=N)N)[C@H](NC(=N)N)C[C@@H]1NC(=N)N`: the Ki turned out to be 100 µM.

For the compound `N=C(N)Nc1ccc(O[C@H]2C[C@@H](Oc3ccc(NC(=N)N)c4ccccc34)[C@H](NC(=N)N)C[C@@H]2NC(=N)N)c(N)c1`, the inhibition constant (Ki) is 0.022 µM.

Turning to `NC(N)=Nc1cccc(NC(=O)O[C@H]2C[C@@H](OC(=O)Nc3cccc(N=C(N)N)c3)[C@H](N=C(N)N)C[C@@H]2N=C(N)N)c1`, the Ki came to 1.77 µM.

For `NC(N)=Nc1ccc(O[C@H]2C[C@@H](Oc3ccc(N=C(N)N)c4ccccc34)[C@H](N=C(N)N)C[C@@H]2N=C(N)N)c(N=C(N)N)c1`, the inhibitory constant (Ki) stood at 0.404 µM.

Regarding `NC(N)=N[C@H]1C[C@@H](N=C(N)N)[C@H](Oc2ccccn2)C[C@@H]1Oc1ccccn1`, the Ki was 100 µM.

With `NC(N)=Nc1cnccc1O[C@H]1C[C@@H](Oc2ccncc2N=C(N)N)[C@H](N=C(N)N)C[C@@H]1N=C(N)N`, the Ki turned out to be 100 µM.

Consider `N=C(N)Nc1ccc(NC(=O)O[C@H]2C[C@@H](OC(=O)Nc3ccc(NC(=N)N)cc3)[C@H](NC(=N)N)C[C@@H]2NC(=N)N)cc1`, for which the inhibitory constant (Ki) is 0.812 µM.

Consider `N=C(N)Nc1ccc(O[C@H]2C[C@@H](Oc3ccc(NC(=N)N)c4ccccc34)[C@H](NC(=N)N)C[C@@H]2NC(=N)N)cc1`, for which the inhibitory constant (Ki) came to 0.006 µM.

With `NC(N)=Nc1cccnc1O[C@H]1C[C@@H](Oc2ncccc2N=C(N)N)[C@H](N=C(N)N)C[C@@H]1N=C(N)N`, the Ki was 100 µM.

Regarding `NC(N)=Nc1ccc(O[C@H]2C[C@@H](Oc3ccc(N=C(N)N)cc3)[C@H](N=C(N)N)C[C@@H]2N=C(N)N)cc1`, the inhibition constant (Ki) was determined as 0.012 µM.

Turning to `NC(N)=Nc1ccccc1O[C@H]1C[C@@H](Oc2ccccc2N=C(N)N)[C@H](N=C(N)N)C[C@@H]1N=C(N)N`, the inhibition constant (Ki) was 100 µM.

Take `N=C(N)Nc1ccc(O[C@H]2C[C@@H](Oc3ccc(NC(=N)N)cc3NC(=N)N)[C@H](NC(=N)N)C[C@@H]2NC(=N)N)c(NC(=N)N)c1`: the Ki was 0.169 µM.

On to `NC(N)=Nc1ccc(N[C@H]2C[C@@H](N=C(N)N)[C@H](Oc3ccc(N=C(N)N)cc3)C[C@@H]2Oc2ccc(N=C(N)N)cc2)cc1`, for which the Ki amounted to 0.046 µM.

`NC(N)=Nc1ccc(O[C@@H]2C[C@H](Oc3ccc(N=C(N)N)cc3N=C(N)N)[C@@H](N=C(N)N)C[C@H]2N=C(N)N)cc1`: the inhibitory constant (Ki) stood at 0.089 µM.

As to `N=C(N)N[C@H]1C[C@@H](NC(=N)N)[C@H](Oc2ccc3nc(N)[nH]c3c2)C[C@@H]1Oc1ccc2nc(N)[nH]c2c1`, the Ki was found to be 100 µM.

As for `NC(N)=Nc1ccc(N[C@H]2C[C@@H](N=C(N)N)[C@H](Oc3ccc(N=C(N)N)c4ccccc34)C[C@@H]2Oc2ccc(N=C(N)N)c3ccccc23)c2ccccc12`, the inhibition constant Ki came to 0.423 µM.
